Data from patent US20200085805A1, “METHOD FOR TREATING CANCER RELATED TO ACTIVATION OF RAS GENE IN SUBJECT” (priority 2018, published 2020).

How the values were obtained:
[1] = system: L185+L186 Drosophila tumor model; assay: Inhibition of tumors in GFP-scrib-/- Drosophila tumor model (GFP fluorescence, live imaging); format: in vivo, Drosophila melanogaster; details: oral administration of 24 mM in doped culture medium, 5 days, 80 pupae; without compound 2.37×10^9 μW/cm^2
From the text: A green fluorescent protein (GFP)-tagged FLP/FRT recombinant system and scrib/TM6B balanced Drosophila melanogaster strain were used for hybridization to obtain a GFP-scrib−/− chimeric tumorigenesis model (L185+L186), wherein the GFP expression is in linkage with tumorigenesis. The preparation of a normal culture medium and a doped culture medium was the same as in embodiment 1. After culturing in the normal culture medium and the doped culture medium for 5 days, 80 pupae were taken from the culture tubes used for the test and washed twice with PBS (phosphate buffered saline solution). The pupae were neatly arranged on slides and were then transferred to an ice box to freeze for 2 hours. The pupae were observed under an IVIS Lumina X5 live imaging system (excitation light wavelength 450-490 nm, the same hereafter), images were taken, and the expression of the green fluorescent protein was evaluated.

RAS mRNA = assay: Reduction of RAS mRNA in Drosophila pupae, measured by RT-PCR (2-ΔΔCt method); format: in vivo; details: 24 mM in culture medium, 5 days culture, 40 pupae, GAPDH internal reference, versus normal medium control
Experimental: The molecular weight of 1-methyl-4-phenyl-1,2,3,6-tetrahydropyridine is 173.25 g/mol. 1.7325 g of the compound was accurately weighed, dissolved in 10 mL of DMSO solution to prepare a 1 M mother liquid for later use.
The preparation of a normal culture medium: 0.53 g of agar and 1.6 g of yeast extraction powder was added to 50 mL H2O. The mixture obtained was heated until boiling. Then, 0.43 g of NaKT, 0.033 g of anhydrous CaCl2, 1.58 g of sucrose, 3.17 g of glucose, and 3.88 g of corn flour (pre-mixed thoroughly with cold water to prevent agglomeration) were added to the mixture, and was brought to boil before stopping heating. The final mixture was transferred in aliquots into a number of culture tubes with a diameter of 25 mm and a volume of 5-8 mL. The filled culture tubes were sterilized at high temperature (30 min, 116° C.), followed by cooling to around 50° C. […]
In the present invention, the content of RAS mRNA was measured by RT-PCR. […] After the amplification, the relative expression level of K-RAS in Drosophila was determined by the 2-ΔΔCt method.
After culturing in the normal culture medium (as a control group) and a culture medium doped by 24 mM of 1-methyl-4-phenyl-1,2,3,6-tetrahydropyridine (as a test group) for 5 days, 40 pupae were taken from each of the culture tubes used for the test. […] The relative amount of RAS mRNA was determined by the above method.

CN1CC=C(c2ccccc2)CC1 [1-methyl-4-phenyl-1,2,3,6-tetrahydropyridine]
absolute value of the fluorescence of the Drosophila tumor model [1]: 3.5×10^8 μW/cm^2
reduction of RAS mRNA level (RAS mRNA): 3.5 folds
